Reference: PubChem BioAssay AID248 (DTP/NCI, 2004)
Where “and” joins values, the source holds several entries; their conditions need not be identical. Equal values may be shown once. Inconclusive results and toxic doses are left out. Cut-off read from the data, not from the text of the source: active = T/C of 150% or more; inactive = T/C below 125%.

System: L1210 leukemia ip in BDF1 mice, survival T/C
Experiment: NCI In Vivo Anticancer Drug Screen. Data for tumor model L1210 Leukemia (intraperitoneal) in B6D2F1 (BDF1) mice
Conditions: higher = longer survival
Outline: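 In this screen, tumor-bearing mice given compound are compared to those given vehicle, and their survival values are reported as a treated-to-control quotient.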

[1] = endpoint: mean survival time, dose: 100.0 mg/kg/injection, schedule: Q01DX001 (ip), vehicle: carboxymethylcellulose (CMC)
[2] = endpoint: mean survival time, dose: 200.0 mg/kg/injection, schedule: Q01DX001 (ip), vehicle: carboxymethylcellulose (CMC)
[3] = endpoint: mean survival time, dose: 50.0 mg/kg/injection, schedule: Q01DX001 (ip), vehicle: saline
[4] = endpoint: mean survival time, dose: 100.0 mg/kg/injection, schedule: Q01DX001 (ip), vehicle: saline
[5] = endpoint: mean survival time, dose: 200.0 mg/kg/injection, schedule: Q01DX001 (ip), vehicle: saline
[6] = endpoint: mean survival time, dose: 400.0 mg/kg/injection, schedule: Q01DX001 (ip), vehicle: saline
[7] = endpoint: mean survival time, dose: 100.0 mg/kg/injection, schedule: Q01DX009 (ip), vehicle: saline with Tween-80
[8] = endpoint: mean survival time, dose: 200.0 mg/kg/injection, schedule: Q01DX009 (ip), vehicle: saline with Tween-80
[9] = endpoint: mean survival time, dose: 100.0 mg/kg/injection, schedule: Q01DX009 (ip), vehicle: Klucel (hydroxypropylcellulose) (HPC)
[10] = endpoint: mean survival time, dose: 200.0 mg/kg/injection, schedule: Q01DX009 (ip), vehicle: Klucel (hydroxypropylcellulose) (HPC)
[11] = endpoint: mean survival time, dose: 400.0 mg/kg/injection, schedule: Q01DX009 (ip), vehicle: Klucel (hydroxypropylcellulose) (HPC)
[12] = endpoint: mean survival time, dose: 75.0 mg/kg/injection, schedule: Q01DX001 (ip), vehicle: saline
[13] = endpoint: mean survival time, dose: 100.0 mg/kg/injection, schedule: Q04DX003 (ip), vehicle: Klucel (hydroxypropylcellulose) (HPC)
[14] = endpoint: mean survival time, dose: 200.0 mg/kg/injection, schedule: Q04DX003 (ip), vehicle: Klucel (hydroxypropylcellulose) (HPC)
[15] = endpoint: mean survival time, dose: 100.0 mg/kg/injection, schedule: Q04DX003 (ip), vehicle: saline with Tween-80
[16] = endpoint: mean survival time, dose: 200.0 mg/kg/injection, schedule: Q04DX003 (ip), vehicle: saline with Tween-80
[17] = endpoint: mean survival time, dose: 400.0 mg/kg/injection, schedule: Q04DX003 (ip), vehicle: saline with Tween-80
[18] = endpoint: mean survival time, dose: 100.0 mg/kg/injection, schedule: Q01DX001 (ip), vehicle: Klucel (hydroxypropylcellulose) (HPC)
[19] = endpoint: mean survival time, dose: 200.0 mg/kg/injection, schedule: Q01DX001 (ip), vehicle: Klucel (hydroxypropylcellulose) (HPC)
[20] = endpoint: mean survival time, dose: 400.0 mg/kg/injection, schedule: Q01DX001 (ip), vehicle: Klucel (hydroxypropylcellulose) (HPC)
[21] = endpoint: mean survival time, dose: 400.0 mg/kg/injection, schedule: Q04DX003 (ip), vehicle: Klucel (hydroxypropylcellulose) (HPC)

Measured: T/C

O=[N+]([O-])c1c[nH]c2ncnc(Cl)c12
inactive: endpoint: mean survival time, dose: 50.0 mg/kg/injection, schedule: Q01DX001 (ip), vehicle: carboxymethylcellulose (CMC) 98 % of control | [1] 89 % of control | [2] 106 % of control

CCC[As](=O)(O)CC(C)C
inactive: endpoint: mean survival time, dose: 6.25 mg/kg/injection, schedule: Q01DX001 (ip), vehicle: saline 102 % of control | endpoint: mean survival time, dose: 6.25 mg/kg/injection, schedule: Q01DX009 (ip), vehicle: saline 119 % of control | endpoint: mean survival time, dose: 12.5 mg/kg/injection, schedule: Q01DX001 (ip), vehicle: saline 98 % of control | endpoint: mean survival time, dose: 12.5 mg/kg/injection, schedule: Q01DX009 (ip), vehicle: saline 101 % of control and 108 % of control | endpoint: mean survival time, dose: 12.5 mg/kg/injection, schedule: Q04DX003 (ip), vehicle: saline 94 % of control | endpoint: mean survival time, dose: 25.0 mg/kg/injection, schedule: Q01DX001 (ip), vehicle: saline 101 % of control | endpoint: mean survival time, dose: 25.0 mg/kg/injection, schedule: Q04DX002 (ip), vehicle: saline 97 % of control | endpoint: mean survival time, dose: 25.0 mg/kg/injection, schedule: Q04DX003 (ip), vehicle: saline 113 % of control | [3] 104 % of control | endpoint: mean survival time, dose: 50.0 mg/kg/injection, schedule: Q04DX002 (ip), vehicle: saline 103 % of control | endpoint: mean survival time, dose: 50.0 mg/kg/injection, schedule: Q04DX003 (ip), vehicle: saline 95 % of control
active: endpoint: mean survival time, dose: 25.0 mg/kg/injection, schedule: Q01DX009 (ip), vehicle: saline 162 % of control

CC(=O)NC(CCc1ccc(Cl)c(Cl)c1)c1cccc(O)c(=O)c1 (configuration not stated)
inactive: endpoint: median survival time, dose: 50.0 mg/kg/injection, schedule: Q01DX009 (ip), vehicle: Klucel (hydroxypropylcellulose) (HPC) 118 % of control | endpoint: median survival time, dose: 100.0 mg/kg/injection, schedule: Q01DX009 (ip), vehicle: Klucel (hydroxypropylcellulose) (HPC) 118 % of control

O=[N+]([O-])c1ccc(O)c(CNCCCNCc2cc([N+](=O)[O-])ccc2O)c1
inactive: [4] 102 % of control | [5] 98 % of control | [6] 102 % of control

Clc1cc(Cl)c(C[N+]23CN4CN(CN(C4)C2)C3)cc1Cl
inactive: endpoint: mean survival time, dose: 12.5 mg/kg/injection, schedule: Q01DX009 (ip), vehicle: saline with Tween-80 102 % of control | endpoint: mean survival time, dose: 25.0 mg/kg/injection, schedule: Q01DX009 (ip), vehicle: saline with Tween-80 104 % of control | endpoint: mean survival time, dose: 50.0 mg/kg/injection, schedule: Q01DX009 (ip), vehicle: saline with Tween-80 102 % of control | [7] 120 % of control | [8] 121 % of control

S=C(NCc1ccco1)Nc1ccccc1Cl
inactive: [9] 100 % of control | [10] 93 % of control

O=C(NCCCCC(NC(=O)OCc1ccccc1)C(=O)NCCCNCCCCNCCCNC(=O)C(CCCCNC(=O)OCc1ccccc1)NC(=O)OCc1ccccc1)OCc1ccccc1 (configuration not stated)
inactive: endpoint: mean survival time, dose: 2.5 mg/kg/injection, schedule: Q01DX Z (ip), vehicle: saline 93 % of control | endpoint: mean survival time, dose: 5.0 mg/kg/injection, schedule: Q01DX Z (ip), vehicle: saline 96 % of control | endpoint: mean survival time, dose: 10.0 mg/kg/injection, schedule: Q01DX Z (ip), vehicle: saline 98 % of control | endpoint: mean survival time, dose: 20.0 mg/kg/injection, schedule: Q01DX Z (ip), vehicle: saline 96 % of control

OC1C(Br)C2C3CC4C(C13)C42 (configuration not stated)
inactive: endpoint: mean survival time, dose: 50.0 mg/kg/injection, schedule: Q04DX002 (ip), vehicle: Klucel (hydroxypropylcellulose) (HPC) 97 % of control | endpoint: mean survival time, dose: 100.0 mg/kg/injection, schedule: Q04DX002 (ip), vehicle: Klucel (hydroxypropylcellulose) (HPC) 89 % of control | endpoint: mean survival time, dose: 200.0 mg/kg/injection, schedule: Q04DX002 (ip), vehicle: Klucel (hydroxypropylcellulose) (HPC) 93 % of control

CC(=NC(CC(C)C)C(=O)O)NC(CC(C)C)C(=O)O (configuration not stated)
inactive: [9] 101 % of control | [10] 110 % of control | [11] 103 % of control

COc1ccc2c(c1O)C13C=C(C)C(=O)CC1C(C2)N(C)CC3 (configuration not stated)
inactive: [12] 106 % of control

Cc1c(C(=O)O)nnn1-c1ccccc1
inactive: [12] 97 % of control | endpoint: mean survival time, dose: 150.0 mg/kg/injection, schedule: Q01DX001 (ip), vehicle: saline 96 % of control

CC(C)c1cc(CN(C)C)cc(C(C)C)c1O
inactive: [13] 95 % of control | [14] 102 % of control

COc1ccc(S(=O)(=O)Nc2cc(Cl)ccc2Cl)cc1
inactive: [7] 92 % of control | [8] 103 % of control | endpoint: mean survival time, dose: 400.0 mg/kg/injection, schedule: Q01DX009 (ip), vehicle: saline with Tween-80 95 % of control

COc1c(O)c(O)cc2c[n+]3ccccc3c(C)c12
inactive: endpoint: mean survival time, dose: 50.0 mg/kg/injection, schedule: Q01DX009 (ip), vehicle: Klucel (hydroxypropylcellulose) (HPC) 95 % of control

CCN(CC)N=Nc1ccc(S(=O)(=O)N(C)C)cc1
inactive: endpoint: mean survival time, dose: 100.0 mg/kg/injection, schedule: Q04DX002 (ip), vehicle: saline with Tween-80 104 % of control | endpoint: mean survival time, dose: 200.0 mg/kg/injection, schedule: Q04DX002 (ip), vehicle: saline with Tween-80 97 % of control | endpoint: mean survival time, dose: 400.0 mg/kg/injection, schedule: Q04DX002 (ip), vehicle: saline with Tween-80 115 % of control

CCN(CC)C(=O)Nc1cccc(O)c1
inactive: [15] 94 % of control | [16] 91 % of control | [17] 93 % of control

ONC(=NCc1ccccc1)c1ccccc1
inactive: [1] 97 % of control | [2] 103 % of control

CSCC(C(N)=O)c1cc(Cl)ccc1Cl (configuration not stated)
inactive: [18] 107 % of control | endpoint: mean survival time, dose: 100.0 mg/kg/injection, schedule: Q01DX009 (ip), vehicle: water 100 % of control | [13] 102 % of control | endpoint: mean survival time, dose: 100.0 mg/kg/injection, schedule: Q04DX003 (ip), vehicle: water 100 % of control | [19] 103 % of control | endpoint: mean survival time, dose: 200.0 mg/kg/injection, schedule: Q01DX009 (ip), vehicle: water 94 % of control | [14] 104 % of control | endpoint: mean survival time, dose: 200.0 mg/kg/injection, schedule: Q04DX003 (ip), vehicle: water 100 % of control | [20] 102 % of control | endpoint: mean survival time, dose: 400.0 mg/kg/injection, schedule: Q01DX009 (ip), vehicle: water 94 % of control | [21] 96 % of control | endpoint: mean survival time, dose: 400.0 mg/kg/injection, schedule: Q04DX003 (ip), vehicle: water 90 % of control

Cc1cc(C)c(C)c(C(C)O)c1C (configuration not stated)
inactive: [15] 96 % of control | [16] 94 % of control

CN1C(=O)C2(C)CCC1c1ccccc12 (configuration not stated)
inactive: endpoint: mean survival time, dose: 100.0 mg/kg/injection, schedule: Q01DX001 (ip), vehicle: other 103 % of control | endpoint: mean survival time, dose: 200.0 mg/kg/injection, schedule: Q01DX001 (ip), vehicle: other 103 % of control

N/C(=N\O)c1nn(C2OC(CO)C(O)C2O)c2ncnc(N)c12 (configuration not stated)
active: endpoint: mean survival time, dose: 25.0 mg/kg/injection, schedule: Q01DX005 (ip), vehicle: saline 171 % of control

CC(C)CP(=O)(CC(C)C)CC(C)C
inactive: endpoint: mean survival time, dose: 6.25 mg/kg/injection, schedule: Q04DX003 (ip), vehicle: saline with Tween-80 98 % of control

C=CCOCC(O)COP(=O)(O)O (configuration not stated)
inactive: [3] 113 % of control | [4] 103 % of control | [5] 107 % of control | [6] 109 % of control

CC(=O)Nc1ccc(Cl)nc1
inactive: [9] 98 % of control | [13] 94 % of control | [10] 92 % of control | [14] 101 % of control | [11] 93 % of control | [21] 91 % of control

CCCCOC1NC(=O)NC(=O)C1=[N+]=[N-] (configuration not stated)
inactive: endpoint: mean survival time, dose: 50.0 mg/kg/injection, schedule: Q04DX003 (ip), vehicle: saline with Tween-80 98 % of control | [16] 102 % of control

Cc1ccc(C(C)(c2ccccc2)C(C)(CC=O)CC(=O)O)cc1 (configuration not stated)
inactive: [15] 92 % of control | [16] 92 % of control | [17] 96 % of control

CC(=O)NC(CSCc1ccccc1)(SCc1ccccc1)C(=O)O (configuration not stated)
inactive: [18] 92 % of control | [19] 90 % of control | [20] 92 % of control

CN(C)CCCC#N
inactive: endpoint: mean survival time, dose: 100.0 mg/kg/injection, schedule: Q04DX003 (ip), vehicle: saline 97 % of control | endpoint: mean survival time, dose: 200.0 mg/kg/injection, schedule: Q04DX003 (ip), vehicle: saline 95 % of control
